Results as given in patent publication US20220354949A1, “NOVEL COMPOUNDS” (XENIOPRO GmbH, priority 2018, published 2022).

How the values were obtained:
Type in all cases: cell-based
[1] = system: MDA-MB-231 cells (human breast carcinoma cells); assay: Proliferation assay (alamarBlue) with MDA-MB-231 cells; settings: compound at 20 μM; for activity at 20 µM: Homo sapiens, Table 69 (novel compounds), read-out: Activity Range: weighted arithmetic mean (AVEw) of normalized fluorescence intensity relative to DMSO basis level 1.0; for Activity Range: weighted arithmetic mean (AVEw) of normalized fluorescence intensity relative to DMSO basis level 1.0: Table 70 (compounds of PCT/EP2018/054686)
From the text: (§1) The antiproliferative activities of compounds falling under formula (Ia), (Ib) and (Ic), respectively, were investigated on cells or cell lines originating from a disorder of the haematopoietic system, including the myeloid cell compartment and the lymphoid cell compartment (T-cells and B-cells), the neuroendocrine system, the cervix, the breast, the ovaries, the lung, the gastrointestinal tract, and the mucosal epithelium, as well as from the skin epithelium and from the muscle. To this end, HL-60 cells, NB-4 cells, HH cells, RPMI-8402 cells, TANOUE cells, TT cells, HeLa cells, MDA-MB-231 cells, FU-OV-1 cells, LOU-NH91 cells, 23132/87 cells, CAL-27 cells, BHY cells, SCC-25 cells, A-431 cells, human primary epidermal keratinocytes (HPEK), and C2C12 cells were seeded into 96-well plates suitable for fluorescence assays (CORNING #3598) at following initial cell numbers: 1000 cells per well for HL-60; 1000 cells per well for NB-4; 5000 cells per well for HH; 5000 cells per well for RPMI-8402; 1500 cells per well for TANOUE; 9000 cells per well for TT; 2000 cells per well for HeLa; 3000 cells per well for MDA-MB-231; 3000 cells per well for FU-OV-1; 4000 cells per well for LOU-NH91; 2000 cells per well for 23132/87; 2000 cells per well for CAL-27; 1500 cells per well for BHY; 1500 cells per well for SCC-25; 700 cells per well for A-431; 1000 cells per well for HPEK; 500 cells per well for C2C12. The cells were treated with compounds at indicated final concentrations (diluted from the 1000× stock-solutions in DMSO to a final DMSO concentration of 0.1% v/v in H2O (Water For Injection, WFI, Fisherscientific #10378939)) or with the empty carrier DMSO at 0.1% v/v as control for 5 days. At day 5 after starting the treatments the cells were subjected to the alamarBlue® Proliferation Assay (Bio-Rad Serotec GmbH, BUF012B) according to the protocol of the manufacturer. The readout was taken with a multi-well plate-reader in the fluorescence mode with applying a filter for excitation at 560 nm (band width 10 nm) and for emission at 590 nm (band width 10 nm). Control treatments for growth inhibition with commercial compounds such as Methotrexate (MTREX) and Resveratrol (RES) were included on every plate. Some of the test compounds of the present invention were obtained and applied as their salts. According cases are indicated in the column “Specification” in Table 55 to Table 92 and by their sum formula in Table 93.
(§2) The assays were performed in duplicate or more replicates of independent single experiments each containing a six-fold replicate for every condition. For every individual plate, the measured fluorescence intensity values of the conditions with compound treatment were normalized against the corresponding equally weighted arithmetic mean of the fluorescence intensity values of the six DMSO treated control wells in order to obtain the relative values to a baseline level of 1.0.
(§3) Two independent outlier analyses were performed according to the methods by Peirce and Chauvenet (Ross, Journal of Engineering Technology 2003, 1-12). Outliers confirmed by at least one of the methods were excluded from the calculations but not more than one value out of six per compound within a single experiment. The weighted arithmetic mean (here abbreviated as AVEw) for each compound was calculated from the normalized values over all independent replicates of the single experiments comprising the six replicates each. The corresponding standard deviation for the weighted arithmetic mean was calculated according to the method described by Bronstein et al. (Bronstein, Semendjajew, Musiol, Müihlig, Taschenbuch der Mathematik, 5th edition 2001 (German), publisher: Verlag Harri Deutsch, Frankfurt am Main and Thun) and was combined with the Gauß' error propagation associated with the performed calculation for the normalization. The resulting standard deviation is herein referred to as “combined standard deviation”. […]

[2] = system: SCC-25 cells (human tongue squamous cell carcinoma cells); assay: Proliferation assay (alamarBlue) with SCC-25 cells; settings: for Activity Range (weighted arithmetic mean AVEw of normalized fluorescence intensity, relative to DMSO basis level 1.0): 20 μM; for Activity Range (weighted arithmetic mean of normalized fluorescence intensity, relative to DMSO basis level 1.0): control at 40 μM
From the text: as §1, §2, §3

[3] = system: human epidermal keratinocyte progenitors (HPEKp, pooled); assay: Proliferation assay (alamarBlue) with HPEKp cells
From the text: The antiproliferative activities of compounds falling under formula (Ia), (Ib) and (Ic), respectively, were investigated on cells or cell lines originating from a disorder of the haematopoietic system, including the myeloid cell compartment and the lymphoid cell compartment (T-cells and B-cells), the neuroendocrine system, the cervix, the breast, the ovaries, the lung, the gastrointestinal tract, and the mucosal epithelium, as well as from the skin epithelium and from the muscle. To this end, HL-60 cells, NB-4 cells, HH cells, RPMI-8402 cells, TANOUE cells, TT cells, HeLa cells, MDA-MB-231 cells, FU-OV-1 cells, LOU-NH91 cells, 23132/87 cells, CAL-27 cells, BHY cells, SCC-25 cells, A-431 cells, human primary epidermal keratinocytes (HPEK), and C2C12 cells were seeded into 96-well plates suitable for fluorescence assays (CORNING #3598) at following initial cell numbers: 1000 cells per well for HL-60; 1000 cells per well for NB-4; 5000 cells per well for HH; 5000 cells per well for RPMI-8402; 1500 cells per well for TANOUE; 9000 cells per well for TT; 2000 cells per well for HeLa; 3000 cells per well for MDA-MB-231; 3000 cells per well for FU-OV-1; 4000 cells per well for LOU-NH91; 2000 cells per well for 23132/87; 2000 cells per well for CAL-27; 1500 cells per well for BHY; 1500 cells per well for SCC-25; 700 cells per well for A-431; 1000 cells per well for HPEK; 500 cells per well for C2C12. […] The readout was taken with a multi-well plate-reader in the fluorescence mode with applying a filter for excitation at 560 nm (band width 10 nm) and for emission at 590 nm (band width 10 nm). […]
as §2, with “1.0. […]” for “1.0.”

[4] = system: 23132/87 cells (human gastric adenocarcinoma cells); assay: Proliferation assay (alamarBlue) with 23132/87 cells; settings: for Activity Range (weighted arithmetic mean AVEw of normalized fluorescence intensity, relative to DMSO basis level 1.0): 20 μM; for Activity Range (weighted arithmetic mean of normalized fluorescence intensity, relative to DMSO basis level 1.0): control at 40 μM
From the text: as §1, §2, §3

[5] = system: CAL-27 cells (human tongue squamous cell carcinoma cells); assay: Proliferation assay (alamarBlue) with CAL-27 cells; settings: for Activity Range (weighted arithmetic mean AVEw of normalized fluorescence intensity, relative to DMSO basis level 1.0): 20 μM; for Activity Range (weighted arithmetic mean of normalized fluorescence intensity, relative to DMSO basis level 1.0): control at 40 μM
From the text: as §1, §2, §3

[6] = Table 83 (compounds disclosed in PCT/EP2018/054686)
[7] = Table 76 (compounds disclosed in PCT/EP2018/054686)
[8] = Table 78 (compounds disclosed in PCT/EP2018/054686)

Row | Structure (SMILES) | activity at 20 µM [1] | Activity Range: weighted arithmetic mean (AVEw) of normalized fluorescence intensity relative to DMSO basis level 1.0 [1] | Activity Range (weighted arithmetic mean AVEw of normalized fluorescence intensity, relative to DMSO basis level 1.0) ([2]; Table 82 (novel compounds)) | Activity Range (weighted arithmetic mean AVEw of normalized fluorescence intensity, relative to DMSO basis level 1.0) [2, 6] | Activity Range: weighted arithmetic mean (AVEw) of normalized fluorescence intensity, relative to DMSO basis level of 1.0 ([3]; control at 20 μM) | Activity Range (weighted arithmetic mean AVEw of normalized fluorescence intensity, relative to DMSO basis level 1.0) ([4]; Table 75 (novel compounds)) | Activity Range (weighted arithmetic mean AVEw of normalized fluorescence intensity, relative to DMSO basis level 1.0) [4, 7] | Activity Range (weighted arithmetic mean AVEw of normalized fluorescence intensity, relative to DMSO basis level 1.0) ([5]; Table 77 (novel compounds)) | Activity Range (weighted arithmetic mean AVEw of normalized fluorescence intensity, relative to DMSO basis level 1.0) [5, 8] | Activity Range (weighted arithmetic mean of normalized fluorescence intensity, relative to DMSO basis level 1.0) ([2]; Table 82) | Activity Range (weighted arithmetic mean of normalized fluorescence intensity, relative to DMSO basis level 1.0) ([2]; Table 83) | Activity Range: weighted arithmetic mean (AVEw) of normalized fluorescence intensity, relative to DMSO basis level of 1.0 ([3]; control at 40 μM) | Activity Range (weighted arithmetic mean of normalized fluorescence intensity, relative to DMSO basis level 1.0) ([4]; Table 75) | Activity Range (weighted arithmetic mean of normalized fluorescence intensity, relative to DMSO basis level 1.0) ([4]; Table 76) | Activity Range (weighted arithmetic mean of normalized fluorescence intensity, relative to DMSO basis level 1.0) ([5]; Table 77) | Activity Range (weighted arithmetic mean of normalized fluorescence intensity, relative to DMSO basis level 1.0) ([5]; Table 78)
1 | CN(Cc1cnc2nc(N)nc(N)c2n1)c1ccc(C(=O)N[C@@H](CCC(=O)O)C(=O)O)cc1 [MTREX, Methotrexate] | 60% | 0.6 ± 0.0 | 0.5 ± 0.1 | 0.5 ± 0.1 | 0.9 ± 0.0 | 0.3 ± 0.0 | 0.3 ± 0.0 | 0.1 ± 0.0 | 0.1 ± 0.0 |  |  |  |  |  |  | 
2 | Oc1ccc(C=Cc2cc(O)cc(O)c2)cc1 [RES, Resveratrol] | 60% | 0.6 ± 0.0 | 0.4 ± 0.1 | 0.4 ± 0.1 | 0.2 ± 0.0 | 0.5 ± 0.1 | 0.5 ± 0.1 | 0.8 ± 0.1 | 0.8 ± 0.1 | 0.1 ± 0.0 | 0.1 ± 0.0 | 0.2 ± 0.0 | 0.2 ± 0.0 | 0.2 ± 0.0 | 0.4 ± 0.3 | 0.4 ± 0.3
